Data reported in PubChem BioAssay (NCI).
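Tested at 5 concentrations; 48 h exposure; 96-well plates; endpoints linearly interpolated, else capped at highest concentration. GI50 is the concentration that inhibits growth by half. At the TGI there is no net growth.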

Assays:
Test in all cases: DTP human tumour cell line panel, 48 h
[1] = test system: LOX IMVI melanoma
[2] = test system: MALME-3M melanoma
[3] = test system: COLO 205 colon
[4] = test system: EKVX NSCLC
[5] = test system: RXF 393 renal
[6] = test system: SNB-75 CNS
[7] = test system: HT29 colon
[8] = test system: M14 melanoma
[9] = test system: OVCAR-8 ovarian
[10] = test system: CCRF-CEM leukemia
[11] = test system: NCI-H522 lung
[12] = test system: DMS 273 small cell lung
[13] = test system: CAKI-1 renal
[14] = test system: HOP-92 NSCLC
[15] = test system: SK-MEL-28 melanoma
[16] = test system: U251 CNS
[17] = test system: HOP-18 NSCLC
[18] = test system: MOLT-4 leukemia
[19] = test system: SK-MEL-2 melanoma
[20] = test system: KM20L2 colon
[21] = test system: LXFL 529 NSCLC
[22] = test system: RPMI-8226 leukemia
[23] = test system: UO-31 renal
[24] = test system: HL-60(TB) leukemia
[25] = test system: RXF-631 renal
[26] = test system: HOP-62 NSCLC
[27] = test system: UACC-62 melanoma
[28] = test system: OVCAR-3 ovarian
[29] = test system: SK-OV-3 ovarian
[30] = test system: SF-295 CNS
[31] = test system: A549 NSCLC
[32] = test system: SF-539 CNS
[33] = test system: SK-MEL-5 melanoma
[34] = test system: IGROV1 ovarian
[35] = test system: NCI-H226 lung
[36] = test system: OVCAR-5 ovarian
[37] = test system: 786-0 renal
[38] = test system: SNB-19 CNS
[39] = test system: SW-620 colon
[40] = test system: SN12C renal
[41] = test system: TK-10 renal
[42] = test system: DMS 114 small cell lung
[43] = test system: M19-MEL melanoma
[44] = test system: KM12 colon
[45] = test system: NCI-H23 lung
[46] = test system: A498 renal
[47] = test system: K-562 leukemia
[48] = test system: XF 498 CNS
[49] = test system: NCI-H460 lung
[50] = test system: SF-268 CNS
[51] = test system: ACHN renal
[52] = test system: UACC-257 melanoma
[53] = test system: OVCAR-4 ovarian
[54] = test system: HCT-15 colon
[55] = test system: DLD-1 colon
[56] = test system: HCC-2998 colon
[57] = test system: HCT-116 colon
[58] = test system: SR leukemia

Q: For `Nc1nc[n+](Cc2ccccc2CCO)c2nc[nH]c12`, which TGI [1] is on record?
A: > 100 µM

Q: And the TGI [2]?
A: > 100 µM

Q: What about the TGI [3] of the same molecule?
A: > 100 µM

Q: And the TGI [4]?
A: > 100 µM

Q: And the TGI [5]?
A: > 100 µM

Q: And the TGI [6]?
A: > 100 µM

Q: And the TGI [7]?
A: > 100 µM

Q: And the TGI [8]?
A: > 100 µM

Q: And the TGI [9]?
A: > 100 µM

Q: And the TGI [10]?
A: > 100 µM

Q: And the TGI [11]?
A: > 100 µM

Q: And the TGI [12]?
A: > 100 µM

Q: And the TGI [13]?
A: > 100 µM

Q: What about the TGI [14] of the same molecule?
A: > 100 µM

Q: What about the TGI [15] of the same molecule?
A: > 100 µM

Q: And the TGI [16]?
A: > 100 µM

Q: What about the TGI [17] of the same molecule?
A: > 100 µM

Q: And the TGI [18]?
A: > 100 µM

Q: What about the TGI [19] of the same molecule?
A: > 100 µM

Q: What about the TGI [20] of the same molecule?
A: > 100 µM

Q: What about the TGI [21] of the same molecule?
A: > 100 µM

Q: What about the TGI [22] of the same molecule?
A: > 100 µM

Q: And the TGI [23]?
A: > 100 µM

Q: And the TGI [24]?
A: > 100 µM

Q: And the TGI [25]?
A: > 100 µM

Q: What about the TGI [26] of the same molecule?
A: > 100 µM

Q: What about the TGI [27] of the same molecule?
A: > 100 µM

Q: What about the TGI [28] of the same molecule?
A: > 100 µM

Q: What about the TGI [29] of the same molecule?
A: > 100 µM

Q: And the TGI [30]?
A: > 100 µM

Q: And the TGI [31]?
A: > 100 µM

Q: And the TGI [32]?
A: > 100 µM

Q: What about the TGI [33] of the same molecule?
A: > 100 µM

Q: What about the TGI [34] of the same molecule?
A: > 100 µM

Q: What about the TGI [35] of the same molecule?
A: > 100 µM

Q: What about the TGI [36] of the same molecule?
A: > 100 µM

Q: And the TGI [37]?
A: > 100 µM

Q: And the TGI [38]?
A: > 100 µM

Q: What about the TGI [39] of the same molecule?
A: > 100 µM

Q: And the TGI [40]?
A: > 100 µM

Q: And the TGI [41]?
A: > 100 µM

Q: What about the TGI [42] of the same molecule?
A: > 100 µM

Q: And the TGI [43]?
A: > 100 µM

Q: What about the TGI [44] of the same molecule?
A: > 100 µM

Q: And the TGI [45]?
A: > 100 µM

Q: What about the TGI [46] of the same molecule?
A: > 100 µM

Q: And the TGI [47]?
A: > 100 µM

Q: What about the TGI [48] of the same molecule?
A: > 100 µM

Q: What about the TGI [49] of the same molecule?
A: > 100 µM

Q: And the TGI [50]?
A: > 100 µM

Q: And the TGI [51]?
A: > 100 µM

Q: And the TGI [52]?
A: > 100 µM

Q: And the TGI [53]?
A: > 100 µM

Q: And the TGI [54]?
A: > 100 µM

Q: For `CC(C)(C)N=Cc1ccccc1[O-].CC(C)(C)N=Cc1ccccc1[O-].[Co+2]`, which GI50 [1] is on record?
A: > 100 µM

Q: What about the TGI [1] of the same molecule?
A: > 100 µM

Q: What about the GI50 [2] of the same molecule?
A: 93.5 µM

Q: What about the TGI [2] of the same molecule?
A: > 100 µM

Q: And the GI50 [3]?
A: 45.3 µM

Q: What about the TGI [3] of the same molecule?
A: > 100 µM

Q: What about the GI50 [55] of the same molecule?
A: 52.7 µM

Q: And the TGI [55]?
A: > 100 µM

Q: What about the GI50 [4] of the same molecule?
A: 60.7 µM

Q: What about the TGI [4] of the same molecule?
A: > 100 µM

Q: And the GI50 [5]?
A: > 100 µM

Q: And the TGI [5]?
A: > 100 µM

Q: And the GI50 [56]?
A: > 100 µM

Q: What about the TGI [56] of the same molecule?
A: > 100 µM

Q: And the GI50 [6]?
A: > 100 µM

Q: And the TGI [6]?
A: > 100 µM

Q: And the GI50 [8]?
A: 30.2 µM

Q: What about the TGI [8] of the same molecule?
A: > 100 µM

Q: And the GI50 [9]?
A: 76.7 µM

Q: And the TGI [9]?
A: > 100 µM

Q: What about the GI50 [11] of the same molecule?
A: 30.3 µM

Q: What about the TGI [11] of the same molecule?
A: > 100 µM

Q: And the GI50 [12]?
A: 37.2 µM

Q: And the TGI [12]?
A: > 100 µM

Q: And the GI50 [57]?
A: 80.4 µM

Q: What about the TGI [57] of the same molecule?
A: > 100 µM

Q: And the GI50 [13]?
A: 59.3 µM

Q: What about the TGI [13] of the same molecule?
A: > 100 µM

Q: What about the GI50 [15] of the same molecule?
A: 55.8 µM

Q: What about the TGI [15] of the same molecule?
A: > 100 µM

Q: And the GI50 [16]?
A: 58.2 µM

Q: What about the TGI [16] of the same molecule?
A: > 100 µM

Q: What about the GI50 [17] of the same molecule?
A: 7.08 µM

Q: And the TGI [17]?
A: 83 µM

Q: What about the GI50 [19] of the same molecule?
A: > 100 µM

Q: And the TGI [19]?
A: > 100 µM

Q: And the GI50 [20]?
A: 72.8 µM

Q: And the TGI [20]?
A: > 100 µM

Q: And the GI50 [21]?
A: 83.9 µM

Q: What about the TGI [21] of the same molecule?
A: > 100 µM

Q: And the GI50 [22]?
A: 18 µM

Q: And the TGI [22]?
A: > 100 µM

Q: What about the GI50 [23] of the same molecule?
A: 18.8 µM

Q: What about the TGI [23] of the same molecule?
A: > 100 µM

Q: And the GI50 [25]?
A: 23.2 µM

Q: And the TGI [25]?
A: > 100 µM

Q: And the GI50 [27]?
A: 12.1 µM

Q: And the TGI [27]?
A: > 100 µM

Q: What about the GI50 [28] of the same molecule?
A: 17.4 µM

Q: What about the TGI [28] of the same molecule?
A: > 100 µM

Q: And the GI50 [30]?
A: > 100 µM

Q: What about the TGI [30] of the same molecule?
A: > 100 µM

Q: What about the GI50 [31] of the same molecule?
A: > 100 µM

Q: And the TGI [31]?
A: > 100 µM

Q: And the GI50 [32]?
A: > 100 µM

Q: What about the TGI [32] of the same molecule?
A: > 100 µM

Q: What about the GI50 [33] of the same molecule?
A: 89.4 µM

Q: And the TGI [33]?
A: > 100 µM

Q: And the GI50 [34]?
A: 22.8 µM

Q: What about the TGI [34] of the same molecule?
A: > 100 µM

Q: And the GI50 [35]?
A: 21.9 µM

Q: And the TGI [35]?
A: > 100 µM

Q: And the GI50 [36]?
A: 3.31 µM

Q: What about the TGI [36] of the same molecule?
A: > 100 µM

Q: What about the GI50 [37] of the same molecule?
A: 72.4 µM

Q: And the TGI [37]?
A: > 100 µM

Q: And the GI50 [38]?
A: > 100 µM

Q: And the TGI [38]?
A: > 100 µM

Q: What about the GI50 [39] of the same molecule?
A: 70.3 µM

Q: And the TGI [39]?
A: > 100 µM

Q: What about the GI50 [58] of the same molecule?
A: 6.3 µM

Q: And the TGI [58]?
A: > 100 µM

Q: What about the GI50 [40] of the same molecule?
A: > 100 µM

Q: What about the TGI [40] of the same molecule?
A: > 100 µM

Q: And the GI50 [41]?
A: 44.5 µM

Q: What about the TGI [41] of the same molecule?
A: > 100 µM

Q: What about the GI50 [42] of the same molecule?
A: 26.1 µM

Q: And the TGI [42]?
A: > 100 µM

Q: And the GI50 [43]?
A: 54.4 µM

Q: And the TGI [43]?
A: > 100 µM

Q: What about the GI50 [44] of the same molecule?
A: > 100 µM

Q: What about the TGI [44] of the same molecule?
A: > 100 µM

Q: What about the GI50 [45] of the same molecule?
A: 8.39 µM

Q: What about the TGI [45] of the same molecule?
A: > 100 µM

Q: And the GI50 [48]?
A: > 100 µM

Q: And the TGI [48]?
A: > 100 µM

Q: And the GI50 [49]?
A: > 100 µM

Q: And the TGI [49]?
A: > 100 µM

Q: What about the GI50 [50] of the same molecule?
A: 60.7 µM

Q: And the TGI [50]?
A: > 100 µM

Q: And the GI50 [53]?
A: 56.5 µM

Q: What about the TGI [53] of the same molecule?
A: > 100 µM

Q: And the GI50 [54]?
A: > 100 µM

Q: And the TGI [54]?
A: > 100 µM
